Patent publication US11498928B2, “Macrocyclic spiroethers as Mcl-1 inhibitors” (ASCENTAGE PHARMA (SUZHOU) CO., LTD., priority 2019, dated 2022)

Legend:
[1] = target: T1, Mcl-1 protein (residues 171-323) (Homo sapiens, UniProt Q07820); assay: Inhibition of Mcl-1 by fluorescence polarization (FP) competitive binding assay with FAM-Bid tracer; details: 2 nM FAM-Bid, 20 nM Mcl-1, 30 min
T1 construct: Tag-free Mcl-1 protein (residues 171-323) was used in the FP assay
Summary of the method: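 Ten-point compound titrations compete against 2 nM fluorescein-Bid for 20 nM Mcl-1 (171-323, untagged). Incubation 30 min RT in PBS buffer with BGG and Triton, 5% DMSO final. mP reduction fitted by sigmoidal nonlinear regression for IC50.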

OPM-2 cells = assay: Cell viability assay (OPM-2 cells), CCK-8; type: cell-based; details: 5% FBS
Summary of the method: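 Viability read by CCK-8 absorbance (450 nm, 4 h reagent incubation) after 24 h compound exposure of 20000 OPM-2 cells per well at 37 °C. IC50 fitted by nonlinear regression on vehicle-normalized signal.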

NCI-H929 cells = assay: Cell viability assay (NCI-H929 cells), CCK-8; type: cell-based; details: 5% FBS
Summary of the method: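 Viability of NCI-H929 cells was measured using the Cell Counting Kit-8. After 24 hrs of compound exposure, 10 μL of CCK-8 solution per well was incubated for 1-4 hours, and absorbance was read at 450 nm on a BioTek Synergy 1MF. Readings were normalized to vehicle (DMSO) cells, and IC50 values were derived by nonlinear regression in GraphPad Prism 6.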

T1 sequence (Q07820 171-323): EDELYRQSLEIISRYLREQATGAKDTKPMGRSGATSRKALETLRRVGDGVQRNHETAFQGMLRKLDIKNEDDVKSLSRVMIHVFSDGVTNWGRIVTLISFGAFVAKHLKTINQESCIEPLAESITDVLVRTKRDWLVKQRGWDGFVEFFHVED

Compound	IC50 [1] [nM]	IC50 (OPM-2 cells; Homo sapiens, OPM-2, 24 h) [nM]	IC50 (NCI-H929 cells; Homo sapiens, NCI-H929, 24 h) [nM]	IC50 (OPM-2 cells; 24 h) [nM]	IC50 (NCI-H929 cells; 24 h) [nM]
CC(C)[C@@H]1C2=C[C@@H](C2)[C@H](C)[C@@H](C)S(=O)(=O)NC(=O)c2ccc3c(c2)N(C[C@@H]2CC[C@H]21)C[C@@]1(CCCc2c1ccc(Cl)c2F)CO3 [compound 55, (1S,11′R,12′S,13′R,16′S,16a′S,18a′R)-6-chloro-5-fluoro-16′-isopropyl-11′,12′-dimethyl-3,4,12′,13′,16′,16a′,17′,18′,18a′,19′-decahydro-1′H,2H,3′H,11′H-spiro[naphthalene-1,2′-[5,7]etheno[13,15]methanocyclobuta[i][1,4]oxazepino[3,4-f][1]thia[2,7]diazacyclohexadecin]-8′(9′H)-one 10′,10′-dioxide]	13	1010	1000		
C[C@@H]1[C@@H](C)S(=O)(=O)NC(=O)c2ccc3c(c2)N(C[C@@H]2CC[C@H]2[C@@H](N2CCOCC2)C2=C[C@H]1C2)C[C@@]1(CCCc2c1ccc(Cl)c2F)CO3 (single isomer, unassigned) [compound 56]	7.7	65	49		
CO[C@@H]1C2=CC(CCS(=O)(=O)NC(=O)c3ccc4c(c3)N(C[C@@H]3CC[C@H]31)C[C@@]1(CCCc3cc(Cl)ccc31)CO4)C2 (single isomer, unassigned) [Cpd. No. 4 (Isomer 2)]	12			2120	1600
CC(=O)N(C)CCO[C@H]1C2=C[C@@H](C2)[C@H](C)[C@@H](C)S(=O)(=O)NC(=O)c2ccc3c(c2)N(C[C@@H]2CC[C@H]21)C[C@@]1(CCCc2c1ccc(Cl)c2F)CO3 [compound 80, N-(2-(((1S,11′R,12′S,13′R,16′R,16a′R,18a′R,E)-6-chloro-5-fluoro-11′,12′-dimethyl-10′,10′-dioxido-8′-oxo-3,4,8′,9′,12′,13′,16′,16a′,17′,18′,18a′,19′-dodecahydro-1′H,2H,3′H, 11′H-spiro[naphthalene-1,2′-[5,7]etheno[13,15]methanocyclobuta[i][1,4]oxazepino[3,4-f][1]thia[2,7]diazacyclohexadecin]-16′-yl)oxy)ethyl)-N-methylacetamide]	13	158	62		
COCCN[C@H]1C2=C[C@@H](C2)[C@H](C)[C@@H](C)S(=O)(=O)NC(=O)c2ccc3c(c2)N(C[C@@H]2CC[C@H]21)C[C@@]1(CCCc2c1ccc(Cl)c2F)CO3 [compound 58, (1S,11′R,12′S,13′R,16′R,16a′R,18a′R)-6-chloro-5-fluoro-16′-((2-methoxyethyl)amino)-11′,12′-dimethyl-3,4,12′,13′,16′,16a′,17′,18′,18a′,19′-decahydro-1′H,2H,3′H, 11′H-spiro[naphthalene-1,2′-[5,7]etheno[13,15]methanocyclobuta[i][1,4]oxazepino[3,4-f][1]thia[2,7]diazacyclohexadecin]-8′(9′H)-one 10′,10′-dioxide]	19	57	18		
C[C@@H]1[C@@H](C)S(=O)(=O)NC(=O)c2ccc3c(c2)N(C[C@@H]2CC[C@H]2[C@@H](OCCN2CCC(F)(F)CC2)C2=C[C@H]1C2)C[C@@]1(CCCc2c1ccc(Cl)c2F)CO3 [compound 95]	23	42	44		
CO[C@H]1C2=C[C@@H](C2)[C@H](C)[C@@H](C)S(=O)(=O)NC(=O)c2ccc3c(c2)N(C[C@@H]2CC[C@H]21)C[C@@]1(CCCc2c1ccc(Cl)c2F)CS3 (single isomer, unassigned) [22 (isomer 1)]	13	567	700		
CO[C@H]1C2=C[C@@H](C2)[C@H](C)CS(=O)(=O)NC(=O)c2ccc3c(c2)N(C[C@@H]2CC[C@H]21)C[C@@]1(CCCc2c1ccc(Cl)c2F)CS3 (single isomer, unassigned) [24 (isomer 1)]	6.4	670	660		
CO[C@H]1C2=C[C@H](C2)[C@H](C)N(C[C@H]2CCCO2)S(=O)(=O)NC(=O)c2ccc3c(c2)N(C[C@@H]2CC[C@H]21)C[C@@]1(CCCc2cc(Cl)ccc21)CO3 (single isomer, unassigned) [30 (isomer 2)]	5.1	4770	4700		
C[C@@H]1[C@@H](C)S(=O)(=O)NC(=O)c2ccc3c(c2)N(C[C@@H]2CC[C@H]2[C@@H](OCCN2CCS(=O)(=O)CC2)C2=C[C@H]1C2)C[C@@]1(CCCc2c1ccc(Cl)c2F)CO3 [compound 88, (1S,11′R,12′S,13′R,16′R,16a′R,18a′R,E)-6-chloro-16′-(2-(1,1-dioxidothiomorpholino)ethoxy)-5-fluoro-11′,12′-dimethyl-3,4,12′,13′,16′,16a′,17′,18′,18a′,19′-decahydro-1′H,2H,3′H,11′H-spiro[naphthalene-1,2′-[5,7]etheno[13,15]methanocyclobuta[i][1,4]oxazepino[3,4-f][1]thia[2,7]diazacyclohexadecin]-8′(9′H)-one 10′,10′-dioxide]	13	118	40		
CO[C@@]1(CN2CCC(N3CCOCC3)CC2)C2=C[C@@H](C2)[C@H](C)[C@@H](C)S(=O)(=O)NC(=O)c2ccc3c(c2)N(C[C@@H]2CC[C@H]21)C[C@@]1(CCCc2c1ccc(Cl)c2F)CO3 [compound 37, (1S,11′R,12′S,13′R,16′R,16a′R,18a′R,E)-6-chloro-5-fluoro-16′-methoxy-11′,12′-dimethyl-16′-((4-morpholinopiperidin-1-yl)methyl)-3,4,12′,13′,16′,16a′,17′,18′,18a′,19′-decahydro-1′H,2H,3′H, 11′H-spiro[naphthalene-1,2′-[5,7]etheno[13,15]methanocyclobuta[i][1,4]oxazepino[3,4-f][1]thia[2,7]diazacyclohexadecin]-8′(9′H)-one 10′,10′-dioxide]	17	63	12		
C[C@@H]1[C@@H](C)S(=O)(=O)NC(=O)c2ccc3c(c2)N(C[C@@H]2CC[C@H]2[C@](O)(CN2CCN4CCOC[C@H]4C2)C2=C[C@H]1C2)C[C@@]1(CCCc2c1ccc(Cl)c2F)CO3 [compound 48, (1S,11′R,12′S,13′R,16′R,16a′R,18a′R,E)-6-chloro-5-fluoro-16′-(((R)-hexahydropyrazino[2,1-c][1,4]oxazin-8(1H)-yl)methyl)-16′-hydroxy-11′,12′-dimethyl-3,4,12,′13′,16′,16a′,17′,18′,18a′,19′-decahydro-1′H,2H,3′H,11′H-spiro[naphthalene-1,2′-[5,7]etheno[13,15]methanocyclobuta[i][1,4]oxazepino[3,4-f][1]thia[2,7]diazacyclohexadecin]-8′(9′H)-one 10′,10′-dioxide]	18	69	28		
CO[C@H]1C2=C[C@H](C2)[C@H](C)[C@@H](C)S(=O)(=O)NC(=O)c2ccc3c(c2)N(C[C@@H]2CC[C@H]21)C[C@@]1(CCCc2c1ccc(Cl)c2F)CO3 (single isomer, unassigned) [Cpd. No. 17 (isomer 2)]	12	601	310		
CO[C@H]1C2=C[C@@H](C2)[C@H](C)N(C[C@H]2CCCO2)S(=O)(=O)NC(=O)c2ccc3c(c2)N(C[C@@H]2CC[C@H]21)C[C@@]1(CCCc2cc(Cl)ccc21)CO3 (single isomer, unassigned) [30 (isomer 4)]	21	> 10000	> 10000		
CO[C@@]1(CN2CCN(C3COC3)CC2)C2=C[C@@H](C2)[C@H](C)[C@@H](C)S(=O)(=O)NC(=O)c2ccc3c(c2)N(C[C@@H]2CC[C@H]21)C[C@@]1(CCCc2c1ccc(Cl)c2F)CO3 [compound 50]	11	28	11		
CO[C@H]1C2=CC(C2)C(C)(C)CS(=O)(=O)NC(=O)c2ccc3c(c2)N(C[C@@H]2CC[C@H]21)C[C@@]1(CCCc2cc(Cl)ccc21)CO3 (single isomer, unassigned) [Cpd. No. 5 (Isomer 2)]	8.3			5210	1600
CO[C@@]1(CN2C[C@@H](C)N[C@@H](C)C2)C2=C[C@@H](C2)[C@H](C)[C@@H](C)S(=O)(=O)NC(=O)c2ccc3c(c2)N(C[C@@H]2CC[C@H]21)C[C@@]1(CCCc2c1ccc(Cl)c2F)CO3 [compound 43, (1S,11′R,12′S,13′R,16′R,16a′R,18a′R,E)-6-chloro-16′-(((3S,5R)-3,5-dimethylpiperazin-1-yl)methyl)-5-fluoro-16′-methoxy-11′,12′-dimethyl-3,4,12′,13′,16′,16a′,17′,18′,18a′,19′-decahydro-1′H,2H,3′H,11′H-spiro[naphthalene-1,2′-[5,7]etheno[13,15]methanocyclobuta[i][1,4]oxazepino[3,4-f][1]thia[2,7]diazacyclohexadecin]-8′(9′H)-one 10′,10′-dioxide]	15	47	35		
CO[C@H]1C2=CC(C2)CC(C)S(=O)(=O)NC(=O)c2ccc3c(c2)N(C[C@@H]2CC[C@H]21)C[C@@]1(CCCc2cc(Cl)ccc21)CO3 (single isomer, unassigned) [11 (Isomer 1)]	6.5			87	86
CO[C@H]1C2=CC(C2)C(C)(C)CS(=O)(=O)NC(=O)c2ccc3c(c2)N(C[C@@H]2CC[C@H]21)C[C@@]1(CCCc2cc(Cl)ccc21)CO3 (single isomer, unassigned) [Cpd. No. 5 (Isomer 1)]	4.8			411	120
